{"source": "patent US10519169B2", "about": "“3-(1H-pyrrolo[2,3-C]pyridin-2-yl)-1 H-pyrazolo[4,3-B]pyridines and therapeutic uses thereof” (Samumed, LLC, priority 2015, dated 2019)", "type_in_all_cases": "cell-based", "key": {"[1]": {"test_system": "Wnt activity (Sp5-Luc reporter, TCF/LEF binding sites) in SW480 colon carcinoma cells", "assay": "Wnt activity screening assay, Sp5-Luc reporter gene in SW480 cells", "conditions": "Homo sapiens; for inhibition at 10 µM: given for EC50 >10 μM, read-out: percent inhibition at 10 μM; for EC50: overnight incubation", "procedure,_shortened": "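SW480 cells stably transduced with an Sp5 promoter (eight TCF/LEF sites)–firefly luciferase lentiviral reporter, plated at 4,000 cells/well in 1% FBS medium with compounds (10-point 1:3 series from 10 μM, 0.1% DMSO) overnight at 37 °C. BrightGlo luminescence normalised to DMSO; EC50 by four-parameter fit, else % inhibition at 10 μM.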"}, "SW480 colon cancer cells": {"test_system": "SW480 colon cancer cells", "assay": "Cell viability assay (CellTiter-Blue), SW480 cells", "conditions": "Homo sapiens; for EC50: 96 h, four days, CellTiter-Blue", "procedure,_shortened": "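SW480 cells (~2×10^3/well) exposed to compound for four days at 37 °C/5% CO2, 1:3 8-point dilutions […]. Viability read by CellTiter-Blue resazurin reduction (~3 h, Ex 560/Em 590 nm); EC50 by non-linear regression, with % inhibition at 10 μM given when EC50 >10 μM.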"}, "IL-6": {"test_system": "IL-6", "assay": "IL-6 inhibition in LPS-stimulated THP-1 cells (HTRF)", "conditions": "Homo sapiens; for EC50: LPS 500 ng/mL, 22 hours, IL6 HTRF", "procedure,_shortened": "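THP-1 monocytes, serum-reduced (1% FBS) for 24 h, were preincubated 2 h with compound at 0.1% DMSO (10-point, 1:3 dilutions from 10 μM), then stimulated with 500 ng/mL LPS for 22 h at 37 °C. IL-6 was quantified by HTRF (665/620 nm ratio), normalized to DMSO. EC50 came from 4-parameter regression, or % inhibition at 10 μM.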"}}}
{"smiles": "CS(=O)(=O)NCc1cc(F)cc(-c2cncc3[nH]c(-c4n[nH]c5ccc(-c6cncnc6)nc45)cc23)c1", "note": "[Compound 503, N-(3-Fluoro-5-(2-(5-(pyrimidin-5-yl)-1H-pyrazolo[4,3-b]pyridin-3-yl)-1H-pyrrolo[2,3-c]pyridin-4-yl)benzyl)methane sulfonamide]", "values": [{"measurement": "inhibition at 10 µM", "setting": "[1]", "result": 46.4, "unit": "%"}, {"measurement": "EC50", "setting": "[1]", "result": "> 10000", "unit": "nM"}, {"measurement": "EC50", "setting": "SW480 colon cancer cells", "result": "> 10000", "unit": "nM"}, {"measurement": "inhibition at 10 µM", "setting": "SW480 colon cancer cells; given for EC50 >10 μM, 10 μM, read-out: percent inhibition at 10 μM", "result": 28.3, "unit": "%"}, {"measurement": "EC50", "setting": "IL-6", "result": 649, "unit": "nM"}]}
{"smiles": "Cc1ccncc1-c1ccc2[nH]nc(-c3cc4c(-c5cc(F)cc(CNS(C)(=O)=O)c5)cncc4[nH]3)c2n1", "note": "[Compound 481, N-(3-Fluoro-5-(2-(5-(4-methylpyridin-3-yl)-1H-pyrazolo[4,3-b]pyridin-3-yl)-1H-pyrrolo[2,3-c]pyridin-4-yl)benzyl)methanesulfonamide]", "values": [{"measurement": "EC50", "setting": "[1]", "result": 980, "unit": "nM"}, {"measurement": "EC50", "setting": "SW480 colon cancer cells", "result": 2780, "unit": "nM"}, {"measurement": "EC50", "setting": "IL-6", "result": 115, "unit": "nM"}]}
{"smiles": "Fc1cccc(-c2cncc3[nH]c(-c4n[nH]c5ccc(-c6cncc(CN7CCCCC7)c6)nc45)cc23)c1", "note": "[Compound 15, 3-(4-(3-Fluorophenyl)-1H-pyrrolo[2,3-c]pyridin-2-yl)-5-(5-(piperidin-1-ylmethyl)pyridin-3-yl)-1H-pyrazolo[4,3-b]pyridine]", "values": [{"measurement": "EC50", "setting": "[1]", "result": 3710, "unit": "nM"}, {"measurement": "EC50", "setting": "SW480 colon cancer cells", "result": 4610, "unit": "nM"}, {"measurement": "EC50", "setting": "IL-6", "result": "> 10000", "unit": "nM"}, {"measurement": "inhibition at 10 µM", "setting": "IL-6; given for EC50 >10 μM, LPS, IL6, at 10 M [sic], read-out: percent inhibition at 10 M", "result": 51.3, "unit": "%"}]}
{"smiles": "CN(C)c1cncc(-c2ccc3[nH]nc(-c4cc5c(-c6cccc(F)c6)cncc5[nH]4)c3n2)c1", "note": "[Compound 7, 5-(3-(4-(3-Fluorophenyl)-1H-pyrrolo[2,3-c]pyridin-2-yl)-1H-pyrazolo[4,3-b]pyridin-5-yl)-N,N-dimethylpyridin-3-amine]", "values": [{"measurement": "EC50", "setting": "[1]", "result": 516, "unit": "nM"}, {"measurement": "EC50", "setting": "SW480 colon cancer cells", "result": 357, "unit": "nM"}, {"measurement": "EC50", "setting": "IL-6", "result": 38, "unit": "nM"}]}
{"smiles": "c1cc(-c2cncc3[nH]c(-c4n[nH]c5ccc(-c6cncc(CN7CCCCC7)c6)nc45)cc23)ccn1", "note": "[Compound 127, 5-(5-(Piperidin-1-ylmethyl)pyridin-3-yl)-3-(4-(pyridin-4-yl)-1H-pyrrolo[2,3-c]pyridin-2-yl)-1H-pyrazolo[4,3-b]pyridine]", "values": [{"measurement": "inhibition at 10 µM", "setting": "[1]", "result": 29.6, "unit": "%"}, {"measurement": "EC50", "setting": "[1]", "result": "> 10000", "unit": "nM"}, {"measurement": "EC50", "setting": "SW480 colon cancer cells", "result": 5260, "unit": "nM"}, {"measurement": "EC50", "setting": "IL-6", "result": 2860, "unit": "nM"}]}
{"smiles": "FC1(F)CCN(Cc2cncc(-c3ccc4[nH]nc(-c5cc6c(-c7cccnc7)cncc6[nH]5)c4n3)c2)C1", "note": "[Compound 110, 5-(5-((3,3-Difluoropyrrolidin-1-yl)methyl)pyridin-3-yl)-3-(4-(pyridin-3-yl)-1H-pyrrolo[2,3-c]pyridin-2-yl)-1H-pyrazolo[4,3-b]pyridine]", "values": [{"measurement": "EC50", "setting": "[1]", "result": 3850, "unit": "nM"}, {"measurement": "EC50", "setting": "SW480 colon cancer cells", "result": 4860, "unit": "nM"}, {"measurement": "EC50", "setting": "IL-6", "result": 380, "unit": "nM"}]}
{"smiles": "Cc1ccncc1-c1ccc2[nH]nc(-c3cc4c(-c5cccnc5)cncc4[nH]3)c2n1", "note": "[Compound 89, 5-(4-Methylpyridin-3-yl)-3-(4-(pyridin-3-yl)-1H-pyrrolo[2,3-c]pyridin-2-yl)-1H-pyrazolo[4,3-b]pyridine]", "values": [{"measurement": "inhibition at 10 µM", "setting": "[1]", "result": 35.4, "unit": "%"}, {"measurement": "EC50", "setting": "[1]", "result": "> 10000", "unit": "nM"}, {"measurement": "EC50", "setting": "SW480 colon cancer cells", "result": 8840, "unit": "nM"}, {"measurement": "EC50", "setting": "IL-6", "result": 424, "unit": "nM"}]}
